According to patent US12037333B2, “Pyridopyrazine and pyridotriazine inhibitors of influenza virus replication” (priority 2018, dated 2024):

Test system: Influenza type A (strain A/PR/8/34, ATCC VR-95)
Assay: Influenza antiviral assay: inhibition of virus-induced cytopathic effects (CPE) in MDCK cells, XTT dye reduction
Format: cell-based
Conditions: Influenza A virus, H1N1 / PR/8, MDCK, 96 h, strain A/PR/8/34, MDCK cells, CPE inhibition at 4 days

CC1N(C2CCC2)C(=O)c2c(O)c(=O)ccn2N1C12c3ccccc3CC1Cc1c(F)cccc12 (centres unmarked) [Compound A141] was tested, and the EC50 was 375 to 500 nM.
Work on O=C1c2c(O)c(=O)ccn2N(C23c4ccccc4CC2Cc2c(F)cccc23)CN1CC(F)F (centres unmarked) [Compound A83] yielded an EC50 of less than 125 nM.
In the case of O=C1c2c(O)c(=O)ccn2N(C23c4ccccc4CC2Cc2c(F)cccc23)CN1CCc1ccccc1 (centres unmarked) [Compound A87], the EC50 is reported as 125 to 250 nM.
CCN1CN(C23c4ccccc4CC2Cc2c3ccc(C)c2F)n2ccc(=O)c(O)c2C1=O (centres unmarked) [Compound A98] gave an EC50 of 250 to 375 nM.
With CCN1CN(C23c4ccccc4CC2(C)Cc2c3ccc(F)c2F)n2ccc(=O)c(O)c2C1=O (centres unmarked) [Compound A164] the EC50 was less than 125 nM.
In the case of CN1C(=O)c2c(O)c(=O)ccn2N(C23C(=Cc4c(F)cccc42)Cc2c(F)cccc23)C1CN (centres unmarked) [Compound A106, 2-(aminomethyl)-1-(1,8-difluoroindeno[1,2-a]inden-4b(9H)-yl)-5-hydroxy-3-methyl-2,3-dihydro-1H-pyrido[2,1-f][1,2,4]triazine-4,6-dione], the EC50 is reported as 125 to 250 nM.
O=C1c2c(O)c(=O)ccn2N(C23c4ccccc4CC2Cc2c(Cl)cccc23)CN1CCCF (centres unmarked) [Compound A102] gave an EC50 of 125 to 250 nM.
Molecule O=C1c2c(O)c(=O)ccn2N(C23c4cccc(F)c4CC2Cc2c(F)cccc23)CN1CC1CCCCO1 (centres unmarked) [Compound A130] has an EC50 greater than 500 nM.
With CCN1CN(C23c4ccccc4CC2Cc2cc(F)c(F)cc23)n2ccc(=O)c(O)c2C1=O (centres unmarked) [Compound A10, 1-(2,3-Difluoro-9a,10-dihydro-9H-indeno[1,2-a]inden-4b-yl)-3-ethyl-5-hydroxy-2,3-dihydro-1H-pyrido[2,1-f][1,2,4]triazine-4,6-dione] the EC50 was 250 to 375 nM.
In the case of CN1C(=O)c2c(O)c(=O)ccn2N(C23c4cccc(F)c4CC2Cc2c(F)cccc23)C1CO (centres unmarked) [Compound A59], the EC50 is reported as less than 125 nM.
CC(C)CN1CN(C23c4cccc(F)c4CC2Cc2c(F)cccc23)n2ccc(=O)c(O)c2C1=O (centres unmarked) [Compound A156] showed an EC50 of 250 to 375 nM.
In the case of O=C1c2c(O)c(=O)ccn2N(C23c4ccccc4CC2Cc2c(Cl)cccc23)CN1CC(F)F (centres unmarked) [Compound A105], the EC50 is reported as less than 125 nM.
O=C1c2c(O)c(=O)ccn2N(C23c4ccccc4CC2Cc2c3ccc(F)c2F)CN1Cc1cccc(F)c1 (centres unmarked) [Compound A26, 1-(1,2-difluoro-9a,10-dihydroindeno[1,2-a]inden-4b(9H)-yl)-3-(3-fluorobenzyl)-5-hydroxy-2,3-dihydro-1H-pyrido[2,1-f][1,2,4]triazine-4,6-dione] gave an EC50 of 375 to 500 nM.
Work on CCN1C(=O)c2c(O)c(=O)ccn2N(C23c4ccccc4CC2Cc2c(F)cccc23)C1C (centres unmarked) [Compound A138] yielded an EC50 of 125 to 250 nM.
Molecule CC(CCN1CN(C23c4ccccc4CC2Cc2c3ccc(F)c2F)n2ccc(=O)c(O)c2C1=O)c1ccccc1 (centres unmarked) [Compound A91] has an EC50 greater than 500 nM.
O=C1c2c(O)c(=O)ccn2N(C23c4ccccc4CC2Cc2c3ccc(F)c2F)CN1CC1CCCCO1 (centres unmarked) [Compound A131] showed an EC50 of 375 to 500 nM.
O=C1c2c(O)c(=O)ccn2N(C23c4ccccc4CC2Cc2c(F)cccc23)CN1C1CC1 (centres unmarked) [Compound A65] was tested, and the EC50 was 125 to 250 nM.
With CN1C(=O)c2c(O)c(=O)ccn2N(C23c4cccc(F)c4CC2Cc2c(F)cccc23)C1CN (centres unmarked) [Compound A107, 2-(aminomethyl)-1-(1,8-difluoro-9a,10-dihydroindeno[1,2-a]inden-4b(9H)-yl)-5-hydroxy-3-methyl-2,3-dihydro-1H-pyrido[2,1-f][1,2,4]triazine-4,6-dione] the EC50 was 125 to 250 nM.
Molecule O=C1c2c(O)c(=O)ccn2N(C23c4ccccc4CC2Cc2c3ccc(F)c2F)CN1CCc1ccccc1 (centres unmarked) [Compound A25, 1-(1,2-difluoro-9a,10-dihydroindeno[1,2-a]inden-4b(9H)-yl)-5-hydroxy-3-phenethyl-2,3-dihydro-1H-pyrido[2,1-f][1,2,4]triazine-4,6-dione] has an EC50 of less than 125 nM.
Molecule O=C1c2c(O)c(=O)ccn2N(C23c4ccccc4CC2Cc2c(Cl)cccc23)CN1CC1CCCC1 (centres unmarked) [Compound A104] has an EC50 greater than 500 nM.
O=C1c2c(O)c(=O)ccn2N(C23c4ccccc4CC2Cc2c3ccc(F)c2F)CN1Cc1ccc(F)cc1 (centres unmarked) [Compound A17, 1-(1,2-Difluoro-9a,10-dihydro-9H-indeno[1,2-a]inden-4b-yl)-3-(4-fluoro-benzyl)-5-hydroxy-2,3-dihydro-1H-pyrido[2,1-f][1,2,4]triazine-4,6-dione] gave an EC50 of 125 to 250 nM.
Work on COCCN1C(=O)c2c(O)c(=O)ccn2N(C23c4ccccc4CC2Cc2c(F)cccc23)C1C (centres unmarked) [Compound A124] yielded an EC50 of 375 to 500 nM.
Work on CN1CN(C23c4ccccc4CC2(C(F)F)Cc2ccccc23)n2ccc(=O)c(O)c2C1=O (centres unmarked) [Compound A63] yielded an EC50 of 125 to 250 nM.
O=C1c2c(O)c(=O)ccn2N(C23c4ccccc4CC2Cc2ccccc23)CN1Cc1ccccc1 (centres unmarked) [Compound A4, 3-Benzyl-1-(9a,10-dihydro-9H-indeno[1,2-a]inden-4b-yl)-5-hydroxy-2,3-dihydro-1H-pyrido[2,1-f][1,2,4]triazine-4,6-dione] gave an EC50 greater than 500 nM.
For O=C1c2c(O)c(=O)ccn2N(C23c4ccccc4CC2Cc2c3ccc(F)c2F)CN1CCF (centres unmarked) [Compound A74], the EC50 was 125 to 250 nM.
Work on CC1N(CC2CC2)C(=O)c2c(O)c(=O)ccn2N1C12c3ccccc3CC1Cc1c(F)cccc12 (centres unmarked) [Compound A129] yielded an EC50 of 250 to 375 nM.
CCN1CN(C23c4ccccc4CC2Cc2c(Cl)cccc23)n2ccc(=O)c(O)c2C1=O (centres unmarked) [Compound A55] was tested, and the EC50 was less than 125 nM.
In the case of CN1CN(C23c4cccc(F)c4CC2(C)Cc2c(F)cccc23)n2ccc(=O)c(O)c2C1=O (centres unmarked) [Compound A54], the EC50 is reported as less than 125 nM.
CN1CN(C23c4ccccc4CC2Cc2c3ccc(Cl)c2F)n2ccc(=O)c(O)c2C1=O (centres unmarked) [Compound A160] gave an EC50 of less than 125 nM.
Molecule CCN1CN(C23c4ccccc4CC2(OC)Cc2ccccc23)n2ccc(=O)c(O)c2C1=O (centres unmarked) [Compound A152] has an EC50 of less than 125 nM.
In the case of CC(C)CN1C(=O)c2c(O)c(=O)ccn2N(C23c4ccccc4CC2Cc2c(Cl)cccc23)C1C (centres unmarked) [Compound A118], the EC50 is reported as greater than 500 nM.
Work on CC1N(C)C(=O)c2c(O)c(=O)ccn2N1C12c3cccc(F)c3CC1Cc1c(F)cccc12 (centres unmarked) [Compound A73] yielded an EC50 of less than 125 nM.
Work on CN1CN(C23c4ccccc4CC2(C)Cc2ccccc23)n2ccc(=O)c(O)c2C1=O (centres unmarked) [Compound A150] yielded an EC50 of less than 125 nM.
Work on CN1CN(C23c4ccccc4CC2Cc2ccccc23)n2ccc(=O)c(O)c2C1=O (centres unmarked) [Compound A1, 1-(9a, 10-dihydroindeno[1,2-a]inden-4b(9H)-yl)-5-hydroxy-3-methyl-2,3-dihydro-1H-pyrido[2,1-f][1,2,4]triazine-4,6-dione] yielded an EC50 of less than 125 nM.
O=C1c2c(O)c(=O)ccn2N(C23c4cccc(F)c4CC2Cc2c(F)cccc23)CN1CC1CC1 (centres unmarked) [Compound A76] was tested, and the EC50 was less than 125 nM.
In the case of CCCN1CN(C23c4ccccc4CC2Cc2c3ccc(F)c2F)n2ccc(=O)c(O)c2C1=O (centres unmarked) [Compound A148], the EC50 is reported as less than 125 nM.
With COCCN1CN(C23c4ccccc4CC2Cc2ccccc23)n2ccc(=O)c(O)c2C1=O (centres unmarked) [Compound A110] the EC50 was 125 to 250 nM.
CN1CN(C23C(=Cc4ccccc42)Cc2ccccc23)n2ccc(=O)c(O)c2C1=O (centres unmarked) [Compound A30, 5-hydroxy-1-(indeno[1,2-a]inden-4b(9H)-yl)-3-methyl-2,3-dihydro-1H-pyrido[2,1-f][1,2,4]triazine-4,6-dione] showed an EC50 of less than 125 nM.
O=C1c2c(O)c(=O)ccn2N(C23c4ccccc4CC2Cc2c(Cl)cccc23)CN1CC1CCC1 (centres unmarked) [Compound A112] showed an EC50 of 375 to 500 nM.
CCN1CN(C23c4ccccc4CC2(CC)Cc2ccccc23)n2ccc(=O)c(O)c2C1=O (centres unmarked) [Compound A157] was tested, and the EC50 was 125 to 250 nM.
CC1N(C)C(=O)c2c(O)c(=O)ccn2N1C12c3ccccc3CC1Cc1c(F)cccc12 (centres unmarked) [Compound A60] gave an EC50 of less than 125 nM.
CN1CN(C23c4cc(F)ccc4CC2Cc2c(Cl)cccc23)n2ccc(=O)c(O)c2C1=O (centres unmarked) [Compound A96] was tested, and the EC50 was less than 125 nM.
O=C1c2c(O)c(=O)ccn2N(C23c4ccccc4CC2Cc2c3ccc(F)c2F)CN1CC(F)F (centres unmarked) [Compound A84] showed an EC50 of less than 125 nM.
Work on CN1CN(C23c4ccccc4CC2Cc2cc(F)c(F)cc23)n2ccc(=O)c(O)c2C1=O (centres unmarked) [Compound A19, 1-(2,3-difluoro-9a,10-dihydroindeno[1,2-a]inden-4b(9H)-yl)-5-hydroxy-3-methyl-2,3-dihydro-1H-pyrido[2,1-f][1,2,4]triazine-4,6-dione] yielded an EC50 of less than 125 nM.
For CC(C)N1CN(C23c4ccccc4CC2(C)Cc2c3ccc(F)c2F)n2ccc(=O)c(O)c2C1=O (centres unmarked) [Compound A167], the EC50 was less than 125 nM.
In the case of O=C1c2c(O)c(=O)ccn2N(C23c4ccccc4CC2Cc2c(F)cccc23)CN1CCF (centres unmarked) [Compound A68], the EC50 is reported as less than 125 nM.
O=C1c2c(O)c(=O)ccn2N(C23c4ccccc4CC2Cc2c(Cl)cccc23)CN1CCF (centres unmarked) [Compound A111] gave an EC50 of 125 to 250 nM.
O=C1c2c(O)c(=O)ccn2N(C23c4ccccc4CC2Cc2c3ccc(F)c2F)CN1CC1CCCCC1 (centres unmarked) [Compound A99] gave an EC50 greater than 500 nM.
For O=C1c2c(O)c(=O)ccn2N(C23c4ccccc4CC2Cc2c3ccc(F)c2F)CN1C1CC1 (centres unmarked) [Compound A61], the EC50 was less than 125 nM.
O=C1c2c(O)c(=O)ccn2N(C23c4ccccc4CC2Cc2c3ccc(F)c2F)CN1CCCF (centres unmarked) [Compound A80] gave an EC50 of less than 125 nM.
For CN1CN(C23c4ccccc4CC2Cc2c3ccc(Cl)c2Cl)n2ccc(=O)c(O)c2C1=O (centres unmarked) [Compound A146], the EC50 was less than 125 nM.
Molecule COCCN1C(=O)c2c(O)c(=O)ccn2N(C23c4ccccc4CC2Cc2c(Cl)cccc23)C1C (centres unmarked) [Compound A125] has an EC50 of 250 to 375 nM.
Work on CCC12Cc3ccccc3C1(N1CN(C)C(=O)c3c(O)c(=O)ccn31)c1ccccc1C2 (centres unmarked) [Compound A162] yielded an EC50 of less than 125 nM.
For O=C1c2c(O)c(=O)ccn2N(C23c4ccccc4CC2Cc2cc(F)c(F)cc23)CN1Cc1ccc(F)cc1 (centres unmarked) [Compound A23, 1-(2,3-Difluoro-9a,10-dihydro-9H-indeno[1,2-a]inden-4b-yl)-3-(4-fluoro-benzyl)-5-hydroxy-2,3-dihydro-1H-pyrido[2,1-f][1,2,4]triazine-4,6-dione], the EC50 was greater than 500 nM.
CN1CN(C23c4ccccc4CC2Cc2c3ccc(F)c2F)n2ccc(=O)c(O)c2C1=O (centres unmarked) [Compound A6, 1-(1,2-Difluoro-9a,10-dihydro-9H-indeno[1,2-a]inden-4b-yl)-5-hydroxy-3-methyl-2,3-dihydro-1H-pyrido[2,1-f][1,2,4]triazine-4,6-dione] gave an EC50 of less than 125 nM.
O=C1c2c(O)c(=O)ccn2N(C23c4ccccc4CC2Cc2c(Cl)cccc23)CN1C1CCC1 (centres unmarked) [Compound A103] was tested, and the EC50 was 250 to 375 nM.
